Measured values as given in paper PMC7645366 (EMBO Molecular Medicine, 2020).
“And” between values parts separate entries of the source, which are not always exact repeats. Identical values can stand only once. No end group written: not given here.

Columns and labels:
[1] = target: T1, PLY (Streptococcus pneumoniae serotype 4, UniProt P0C2J9); format: binding
[2] = target: LLO (Listeria monocytogenes serovar 1/2a, UniProt P13128); assay: ELISA, binding of plate-bound MRC-1 peptides to LLO; details: plate-bound peptide, LLO 0–0.5 μM
Method: (§1) Briefly, 96‐well flat‐bottomed plates (Sigma, UK) were coated overnight with 10 μM of MRC‐1 peptides in coating buffer (15 mM Na2CO3, 35 mM NaHCO3, pH 9.6). Wells were blocked with 200 μl of 10% (v/v) FBS in PBS for 2 h and then washed three times with PBS, 0.05% (v/v) Tween 20 (Sigma). 50 μl of purified PLY, LLO, and SLO (0–1 μM) in PBS was added and incubated at 37°C for 1 h. 1 μM BSA was added to control wells. Wells were washed with PBS and bound proteins were detected by adding 100 μl of mouse α‐PLY (1:1,000), mouse α‐SLO (1:400), and rabbit α‐LLO (1:1,500) (Abcam), respectively, in blocking buffer. Plates were incubated with 100 μl of secondary anti‐rabbit/anti‐mouse IgG HRP (1:2,000) dilution in blocking buffer. Bound antibodies were detected by adding 100 μl of tetramethylbenzidine substrate solution for 30 min. Phosphoric acid (1 M) was used as the stop solution and absorbance was measured at 450 nm.

[3] = target: T2, SLO (Streptococcus pyogenes serotype M1, UniProt P0C0I3); format: binding
[4] = system: BSA; assay: ELISA, binding of plate-bound MRC-1 peptides to BSA (negative control); details: plate-bound peptide
Method: as §1

[5] = target: T2, SLO; format: cell-based
[6] = system: S. pyogenes type M1T1; assay: Hemolytic activity of whole bacteria, S. pyogenes; format: cell-based, Streptococcus pyogenes; details: 100 μM peptide
Method: (§2) All samples were assayed in triplicates.

[7] = system: L. monocytogenes type 1; assay: Hemolytic activity of whole bacteria, L. monocytogenes; format: cell-based, Listeria monocytogenes; details: 100 μM peptide
Method: as §2

[8] = target: T2, SLO; format: cell-based; remark: listed apart in the source
[9] = system: PLY‐producing pneumococcal strain T4; assay: Binding of FITC-labeled peptides to pneumococci, fluorescence microscopy; set-up: species or system Streptococcus pneumoniae
[10] = target: T2, SLO; format: cell-based; remark: listed apart in the source
[11] = target: T1, PLY; format: cell-based
[12] = target: T1, PLY; format: cell-based; remark: listed apart in the source
[13] = system: S.pneumoniae T4RΔply; assay: Co-localization of intracellular T4RΔply with MRC-1 and LC3B in DCs; format: cell-based, Streptococcus pneumoniae; details: for % bacteria colocalized with MRC-1 / % bacteria colocalized with LC3B / number of bacteria (of n=50) colocalized with LC3B / number of bacteria (of n=50) colocalized with MRC-1: T4RΔply in DCs
[14] = system: S. pneumoniae T4; assay: Zebrafish embryo infection model, survival; format: in vivo, zebrafish (Danio renio); details: 500 CFU T4 microinjected into yolk sac, co-administration 1 nM
Method: The AB strain of zebrafish embryos (Danio renio) was collected within first hours post‐fertilization (hpf) from the zebrafish core facility at Karolinska Institutet, Stockholm, and maintained at 28.5°C in E3 medium (5.0 mM NaCl, 0.17 mM KCl, 0.33 mM CaCl2, 0.33 mM MgSO4). […] Microinjection was done using a glass needle (Harvard apparatus, Quebec, Canada) controlled with a micromanipulator Narishige MN‐153 (Narishige International Limited, London, UK) connected to an Eppendorf FemtoJet express (Eppendorf AG, Hamburg, Germany). The injected volume was previously optimized by injecting of a droplet into mineral oil over a scale bar. The embryos were randomly assigned to the treatment groups and a minimum of 156 embryos/group was used. To determine the actual number of bacteria in the injected volume, one drop was collected into the agar plates, and 1–3 embryos were digested and plated just immediately after injection. The infected embryos were incubated at 30°C for 96 h. The infected embryos were monitored for disease symptoms and survival under a stereomicroscope twice a day up to 4 days post‐injection. Absence of heartbeat and movement was interpreted as a sign of death. All experiments were performed thrice.

[15] = system: LC3B; format: cell-based, human

T2 sequence (P0C0I3 34-571 limits assumed): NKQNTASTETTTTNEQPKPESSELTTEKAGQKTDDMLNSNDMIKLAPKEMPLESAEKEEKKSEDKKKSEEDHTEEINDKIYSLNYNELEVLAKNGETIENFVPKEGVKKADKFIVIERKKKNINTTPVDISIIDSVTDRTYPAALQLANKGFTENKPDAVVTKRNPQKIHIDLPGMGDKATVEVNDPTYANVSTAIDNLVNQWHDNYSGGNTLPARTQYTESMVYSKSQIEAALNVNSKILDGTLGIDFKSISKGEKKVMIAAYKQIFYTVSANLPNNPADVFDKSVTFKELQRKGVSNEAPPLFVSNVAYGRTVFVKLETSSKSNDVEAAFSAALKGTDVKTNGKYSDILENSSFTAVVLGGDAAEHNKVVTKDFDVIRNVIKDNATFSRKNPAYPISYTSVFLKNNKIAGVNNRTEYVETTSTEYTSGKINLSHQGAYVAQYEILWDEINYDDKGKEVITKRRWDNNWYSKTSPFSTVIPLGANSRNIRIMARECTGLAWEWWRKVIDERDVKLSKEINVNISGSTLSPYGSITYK
T1 sequence (P0C2J9 whole entry, looked up): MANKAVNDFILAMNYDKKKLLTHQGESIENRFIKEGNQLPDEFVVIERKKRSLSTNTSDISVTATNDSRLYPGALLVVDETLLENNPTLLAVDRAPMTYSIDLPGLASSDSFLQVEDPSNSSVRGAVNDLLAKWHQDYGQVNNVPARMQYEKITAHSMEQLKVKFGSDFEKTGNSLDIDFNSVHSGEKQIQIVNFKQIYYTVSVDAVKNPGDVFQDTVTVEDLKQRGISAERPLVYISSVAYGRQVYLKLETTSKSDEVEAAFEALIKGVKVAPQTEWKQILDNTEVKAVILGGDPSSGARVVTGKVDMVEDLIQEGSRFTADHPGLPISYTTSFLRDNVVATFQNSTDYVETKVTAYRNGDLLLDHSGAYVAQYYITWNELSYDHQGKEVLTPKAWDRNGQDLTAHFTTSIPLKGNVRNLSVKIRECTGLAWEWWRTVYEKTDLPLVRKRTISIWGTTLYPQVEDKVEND
LLO, sequence (P13128 25-529): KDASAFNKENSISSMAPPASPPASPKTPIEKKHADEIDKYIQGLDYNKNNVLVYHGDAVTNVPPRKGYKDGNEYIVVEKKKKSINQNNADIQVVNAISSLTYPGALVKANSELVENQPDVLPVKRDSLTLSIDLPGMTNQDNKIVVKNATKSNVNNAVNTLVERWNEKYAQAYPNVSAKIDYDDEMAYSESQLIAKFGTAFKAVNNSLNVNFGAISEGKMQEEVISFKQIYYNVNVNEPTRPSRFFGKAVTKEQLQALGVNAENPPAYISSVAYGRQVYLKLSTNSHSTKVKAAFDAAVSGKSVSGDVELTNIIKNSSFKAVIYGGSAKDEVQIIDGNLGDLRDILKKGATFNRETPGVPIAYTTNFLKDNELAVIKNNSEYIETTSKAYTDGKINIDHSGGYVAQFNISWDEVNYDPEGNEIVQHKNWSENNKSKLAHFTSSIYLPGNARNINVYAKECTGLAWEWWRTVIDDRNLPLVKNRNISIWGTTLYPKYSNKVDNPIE

Which “binding to PLY in ELISA” value [1] does the source give for FTWSDGSPVSYEN [P2] here?
Its value is “bind dose‐dependently”.

What about the “binding to LLO in ELISA” value [2] of the same sequence?
The value was “bound dose‐dependently”.

And the “binding to SLO in ELISA” value [3]?
The value was “bound dose‐dependently”.

And the “binding to BSA in ELISA” value [4]?
Its value is “not to BSA”.

What about the “inhibition of hemolysis induced by purified SLO” value [5] of the same sequence?
Its value is “up to 50%”.

What about the IC50 ([5]; read-out: ED50 (median effective dose) vs purified SLO, human, blood, 60 min) of the same sequence?
Its IC50 is 9.8 µM.

What about the “hemolytic activity of S. pyogenes type M1T1” value [6] of the same sequence?
Its value is “significantly reduced”.

And the “hemolytic activity of L. monocytogenes type 1” value [7]?
Its value is “significantly reduced”.

What about the “cytolysis by SLO in live imaging” value [8] of the same sequence?
Its value is “protected the cells from cytolysis”.

And the “binding of FITC-labeled peptide to PLY mutant T4Δply” value ([9]; fluorescence microscopy)?
Its value is “not to the PLY‐deficient strain”.

And the “binding of FITC-labeled peptide to pneumococcal strain T4” value ([9]; fluorescence microscopy)?
Its value is “bound to T4”.

What about the “binding of FITC-labelled peptide to capsular mutant strain T4R” value ([9]; response to reviewers, Figure 4) of the same sequence?
The value was “binds to T4R”.

What about the “release of IL‐8, TNF‐α and IL‐12 by THP-1 macrophages, SLO” value [10] of the same sequence?
Its value is “significantly reduced”.

And the “IL-8 levels in THP-1 macrophages” value ([10]; 100uM, 18 h)?
Its value is 426.5 pg/mL and 475.1 pg/mL and 490.7 pg/mL.

And the “LDH release of 3D lung tissue model” value [11]?
Its value is “significantly reduced”.

What about the “release of IL‐8 and TNF‐α in lung tissue model” value [12] of the same sequence?
The value was “significantly reduced release”.

What about the “co-localization of T4RΔply in DCs” value ([13]; DCs, 100 μM peptide, MOI 10, 2 h) of the same sequence?
Its value is “had no effect”.

And the “% bacteria colocalized with MRC-1” value ([13]; 100 μM peptide, n=50 bacteria, experiment 1 of 2)?
The value was 6%.

And the “% bacteria colocalized with LC3B” value ([13]; experiment 1 of 2)?
Its value is 94%.

What about the “number of bacteria (of n=50) colocalized with LC3B” value ([13]; experiment 1 of 2) of the same sequence?
Its value is 47.

What about the “number of bacteria (of n=50) colocalized with MRC-1” value ([13]; experiment 1 of 2) of the same sequence?
Its value is 3.

What about the “% bacteria colocalized with LC3B” value ([13]; experiment 2 of 2) of the same sequence?
Its value is 92%.

And the “% bacteria colocalized with MRC-1” value ([13]; experiment 2 of 2)?
Its value is 8%.

What about the “number of bacteria (of n=50) colocalized with LC3B” value ([13]; experiment 2 of 2) of the same sequence?
Its value is 46.

And the “number of bacteria (of n=50) colocalized with MRC-1” value ([13]; experiment 2 of 2)?
The value was 4.

What about the “survival of infected zebrafish embryos” value [14] of the same sequence?
Its value is “significantly improved the survival”.

And the “expression of LC3B-I and LC3B-II, western blotting” value [15]?
Its value is “induced higher expression”.
